Reference: US7230025B2, “Pyrazole derivatives” (Pfizer, Inc., priority 2002, dated 2007)
pIC50: −log10 of the molar value. Where two headings read alike, the source gives them in different places.

Target: T1, HIV-1 reverse transcriptase (Human immunodeficiency virus type 1 group M subtype B, UniProt P04585)
T1 construct: purified recombinant HIV-1 reverse transcriptase (RT, EC, 2.7.7.49) obtained by expression in Escherichia Coli; made in house; host or cells: Escherichia coli
Assay: Inhibition of HIV-1 Reverse Transcriptase Enzyme
Format: biochemical
Description: The activity of the compounds of the invention as reverse transcriptase inhibitors may be measured using the following assay.
Inhibition of HIV-1 Reverse Transcriptase Enzyme
Using purified recombinant HIV-1 reverse transcriptase (RT, EC, 2.7.7.49) obtained by expression in Escherichia Coli, a 96-well plate assay system is established for assaying a large number of samples using either the Poly(rA)-oligo(dT) Reverse Transcriptase [3H]-SPA enzyme assay system (Amersham NK9020) or the [3H]-flashplate enzyme assay system (NEN-SMP 103) and following the manufacturer's recommendations. The compounds are dissolved in 100% DMSO and diluted with the appropriate buffer to a 5% final DMSO concentration. The inhibitory activity is expressed in percent inhibition relative to DMSO control.

Question: With CCc1nn(C)c(Oc2ncc(Oc3ccc(OC)cc3)cn2)c1Oc1cc(C#N)cc(C#N)c1 [Example 6] as the molecule, how does the pIC50 read?
Answer: The pIC50 was 6.41.

Question: CCc1nn(C)c(Oc2ccccn2)c1Oc1cc(C#N)cc(C#N)c1 [Example 1, 5-[3-Ethyl-1-methyl-5-(pyridin-2-yloxy)-1H-pyrazol4-yloxy]-isophthalonitrile] was tested. Which pIC50 (purified recombinant HIV-1 RT expressed in Escherichia Coli, [3H]-SPA or [3H]-flashplate enzyme assay, 5% final DMSO, read-out: IC50) did it give?
Answer: Its pIC50 is 5.27.
